We go through 6 substances from paper PMC2861366 (Biochemistry, 2010).

“Also recorded” adds a separate entry of the source.

In test [1] the test system is χ subunit of DNA polymerase III holoenzyme. The test can be described thus: ITC binding to χ subunit. Conditions: 25°C; for K, observed association equilibrium constant: buffer C (10 mM cacodylate, pH 7.0, 25% glycerol), 20 mM NaCl. Details: species or system E. coli.
The test system of another test is PriA helicase. Description: ITC binding to PriA helicase. Details: species or system E. coli. To be noted: 25°C; for binding detected by ITC (in words): 0.2 M NaCl, same protein and peptide concentrations as with WP9. A general note: In ITC the heat of successive injections is recorded.
Test [2] deals with χ subunit of DNA polymerase III holoenzyme. To be noted: SSB prebound to ssDNA, low salt (5mM NaCl); cited from earlier work.
The mark [3] stands for this setting: buffer C, pH 7.0, 200 mM NaCl, WP9: averaged from two titrations.
The mark [4] stands for this setting: buffer T (10 mM Tris, pH 7.5, 10% glycerol), 20 mM NaCl.
The mark [5] stands for this setting: buffer C (10 mM cacodylate, pH 7.0, 25% glycerol), 20 mM NaCl.

MDFDDDIPF [P9]: the “K, observed association equilibrium constant” value in test [1] is reported as “(1.6±0.4)×10^6 M^−1”; in the test with PriA helicase (setting [3]), “(1.8±0.6)×10^5 M^−1”; in the test on PriA helicase (setting [4]) it was “(2.0±0.3)×10^6 M^−1”.
With PSNEPPMDFDDDIPF [P15], the “K, observed association equilibrium constant” value in test [1] was “(1.5±0.2)×10^6 M^−1”; in the test with PriA helicase (setting [5]), “(2.7±0.2)×10^6 M^−1”; with PriA helicase (setting [3]), “(3.6±0.2)×10^5 M^−1”; in the test on PriA helicase (setting [4]), “(1.6±0.4)×10^6 M^−1”.
For “SSB: E. coli single stranded DNA binding protein, homotetramer”, the “binding detected by ITC (in words)” value in test [1] (0.02 M NaCl) was “too weak to determine its binding parameters; also recorded: Weak (see text)”. Also, the “affinity of χ for SSB in the presence of ssDNA” value in test [2] is reported as “(7.4±1.0)×10^6 M^−1”.
As for WDFMDDPFID [WP9r], the “binding detected by ITC (in words)” value was “No binding can be detected” in test [1] (0.2 M NaCl, buffer C) and “No binding can be detected” in the test on PriA helicase (buffer C).
In the case of WMDFDDDISF [WP9-113], the “binding detected by ITC (in words)” value in test [1] (0.2 M NaCl, buffer C) is reported as “No binding can be detected”; in the test with PriA helicase (buffer C), “No binding can be detected”.
As for “WP9: modified P9 peptide containing a Trp residue on the N terminal side (WMDFDDDIPF)”, the “K, observed association equilibrium constant” value is “(1.2±0.1)×10^6 M^−1” in test [1], “(1.6±0.2)×10^6 M^−1” with PriA helicase (setting [5]) and “(2.3±0.3)×10^5 M^−1” in the test on PriA helicase (setting [3]).
